Measured values taken from patent US7923434B2, “Phosphole derivatives complexed with metals, and pharmaceutical uses thereof” (Centre National de la Recherche Scientifique, priority 2004, dated 2011).
Positions count from the first letter of the chain named.

Key:
[1] = Tolerability in C6 glioma-bearing rats; type: in vivo, rat
Method: After confirmation of the tumour growth by MRI on day 9, the rats carrying tumours were treated by intravenous injection with the compound (1) at a concentration of 25 mg/kg (n=4). The tumour growth was compared to that of the non-treated control animals (n=4). The treatment commenced on day 9 and continued on days 11 and 13. On day 15 after the implantation of the tumour cells, all the rats were sacrificed by decapitation. Under these conditions, a 44% reduction of the tumour growth was observed between days 9 and 15 at a dose of compound (1) of 25 mg/kg of body weight compared with that of the control group (FIG. 1).

hTrxRSec→Cys [2] = target: T1, hTrxRSec→Cys (Homo sapiens, UniProt Q16881); assay: Test for reduction of Trx (hTrxC72S) by TrxR, mutant hTrxR-Mut; type: biochemical; settings: 20 μM hTrxC72S; 10 min pre-incubation with 100 μM NADPH; enzyme 1.8 μM
T1 sequence (Q16881 with tags, fused parts or gaps limits assumed): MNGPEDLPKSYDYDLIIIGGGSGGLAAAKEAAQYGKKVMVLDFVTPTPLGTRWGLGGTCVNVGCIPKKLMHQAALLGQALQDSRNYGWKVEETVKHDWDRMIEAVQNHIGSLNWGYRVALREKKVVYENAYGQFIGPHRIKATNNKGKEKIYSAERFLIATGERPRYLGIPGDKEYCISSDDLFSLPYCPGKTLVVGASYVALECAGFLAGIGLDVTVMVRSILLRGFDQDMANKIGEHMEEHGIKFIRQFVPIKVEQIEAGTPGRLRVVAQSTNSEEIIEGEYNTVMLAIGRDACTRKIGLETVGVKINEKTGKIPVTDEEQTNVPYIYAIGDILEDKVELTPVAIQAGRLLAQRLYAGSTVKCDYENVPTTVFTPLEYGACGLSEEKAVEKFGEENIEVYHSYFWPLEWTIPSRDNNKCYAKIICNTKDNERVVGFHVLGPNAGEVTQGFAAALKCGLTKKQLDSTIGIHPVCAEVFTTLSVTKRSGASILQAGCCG
From the text: (§1) The phosphole derivatives containing gold and platinum have been identified as powerful inhibitors of human GR and TrxR (see Table 1). With either the substrate TrxC72S, or DTNB, very low IC50 values at nanomolar level—quasi-stoichiometric reaction—were obtained with wild-type human TrxR. By contrast, the IC50 values with the Sec→Cys mutant were at least 1000 times higher, proving that the selenocysteine residue is the inhibition target of human TrxR. […] A reduction of these enzymes is necessary to complete the inhibition, which proves that the active site comprising the Cys/Cys residues in the GR or Cys/Sec in the TrxR is the inactivation site. The pre-reduction of these enzymes accelerates the inhibition. The reaction between the inhibitor and these enzymes is very rapid and not precisely measurable with standard enzymology techniques. […] This competition would probably not contribute to the irreversible enzymatic inactivation.

hTrxRSec→Cys [3] = target: T1, hTrxRSec→Cys; assay: Test for reduction of DTNB by TrxR, mutant hTrxR-Mut; type: biochemical; settings: 3 mM DTNB; 10 min pre-incubation with 200 μM NADPH; enzyme 90.6 nM
From the text: as §1

human GR [4] = target: T2, human GR (Homo sapiens, UniProt P00390); assay: Test for reduction of GSSG by GR; type: biochemical; settings: 100 μM GSSG; 10 min pre-incubation with 100 μM NADPH
T2 sequence (P00390 45-522 limits assumed): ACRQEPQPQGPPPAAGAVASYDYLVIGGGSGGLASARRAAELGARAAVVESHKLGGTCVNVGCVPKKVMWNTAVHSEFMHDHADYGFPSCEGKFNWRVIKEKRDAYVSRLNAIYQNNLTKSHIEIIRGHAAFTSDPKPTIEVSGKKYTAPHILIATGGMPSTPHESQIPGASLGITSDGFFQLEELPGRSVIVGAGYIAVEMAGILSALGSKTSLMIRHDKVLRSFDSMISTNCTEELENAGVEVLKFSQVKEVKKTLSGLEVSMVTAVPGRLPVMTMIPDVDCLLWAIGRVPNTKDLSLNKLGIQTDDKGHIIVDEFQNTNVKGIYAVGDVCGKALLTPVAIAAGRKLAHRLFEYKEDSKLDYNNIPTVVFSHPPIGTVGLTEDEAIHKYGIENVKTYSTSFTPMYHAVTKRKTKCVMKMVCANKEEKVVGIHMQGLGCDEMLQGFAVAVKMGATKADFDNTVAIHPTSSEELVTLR
From the text: as §1

human GR [5] = target: T2, human GR; assay: Binding of (1) to human GR: titration and initial-speed kinetics
Method: The stoichiometry of binding of (1) to human GR was determined by titration. Based on these experiments, (1) binds very tightly to the binding site of the GSSG of each human GR sub-unit. […] Although numerous hydrophobic inhibitors of the human GR and of the GR of Plasmodium falciparum are bound in the cavity between the two sub-units of the dimer with a stoichiometry of 0.5 per sub-unit, this is not the case for the inhibitor (1). The stoichiometry of 1.25 equivalents of (1) per FAD or per sub-unit of human GR can be explained by the presence of a second molecule of (1) bound less tightly to another position in the human GR, confirming the 3D structure of the complex GR-(1). […] The inactivation mechanism of human GR therefore involves an S—Au(I)—S coordination and the loss of the phosphole ligand; • the second site for the metallo-phosphole (1) is the Cys284 exposed to the solvent, at 23 Å of the active site and located in a hydrophobic cavity. In this case, the sulphur atom of the Cys284 remains bound to the Au-phosphole entity. […]

WT hTrxR [6] = target: T3, WT hTrxR (Homo sapiens, UniProt Q16881); assay: Test for reduction of DTNB by TrxR, wild type; type: biochemical; settings: 3 mM DTNB; 10 min pre-incubation with 200 μM NADPH; enzyme 4.8 nM
T3 sequence (Q16881 151-649 limits assumed): T1 sequence (Q16881 with tags, fused parts or gaps limits assumed) with C498U
From the text: as §1

DNA = assay: Thermal DNA denaturation test; type: binding; settings: tested between 0 and 20 μM
Method: In addition to its major activity on human disulphide reductases, glutathione reductase and thioredoxin reductase, the binding of complex (1) to DNA was measured in thermal DNA denaturation tests.

WT hTrxR [7] = target: T3, WT hTrxR; assay: Test for reduction of Trx (hTrxC72S) by TrxR, wild type; type: biochemical; settings: 20 μM hTrxC72S; 10 min pre-incubation with 100 μM NADPH; enzyme 24 nM
From the text: as §1

[8] = test system: NCH89 human glioblastoma cell line; assay: BrdU in vitro proliferation test, NCH89; type: cell-based; settings: BrdU incorporation
Method: (§2) Briefly, the tumour cells are cultured and duplicated in 96-well plates in RPMI 1640 medium containing 10% foetal calf serum and antibiotics (cell density: 7×10^3 cells). […] After 48 hours, the reagent 5-bromo-2′-deoxyuridine (BrdU) was added at the final concentration of 10 μM for an incubation period of 19 hours. […] Compound (7) (Au-triphenylphosphine chloride complex, (PPh3)AuCl) and nitrosourea 1,3-bis(2-chloroethyl)-1-nitrosourea (BCNU, carmustine) are positive controls already reported in the literature.

[9] = test system: NCH82 human glioblastoma cell line; assay: BrdU in vitro proliferation test, NCH82; type: cell-based; settings: BrdU incorporation
Method: as §2

[10] = test system: NCH37 human glioblastoma cell line; assay: BrdU in vitro proliferation test, NCH37; type: cell-based; settings: BrdU incorporation
Method: as §2

Structure (SMILES) | IC50 (hTrxRSec→Cys [2]) [nM] | IC50 (hTrxRSec→Cys [3]) [nM] | IC50 (human GR [4]) [nM] | IC50 (WT hTrxR [6]) [nM] | IC50 (WT hTrxR [7]) [nM] | IC50 [8] [µM] | other results
[Cl][Au][PH]1(c2ccccc2)C(c2ccccn2)=C2CCCCC2=C1c1ccccn1 [Compound 1] | 800 | 2500 | 1 | 0.8 | 7 |  | tolerability of the therapy ([1]; 25 mg/kg): well tolerated; death from treatment ([1]; 25 mg/kg i.v., C6 glioma rats): no animal died; total body weight, treated vs control ([1]; 25 mg/kg i.v., C6 glioma rats): no significant difference; Kd (human GR [5]; kinetics at initial speed with 0.5-2.0 μM GSSG, read-out: disassociation constant Kd=Ki): 460 nM; stoichiometry of binding (human GR [5]; titration, differences in extinction coefficient at selected wavelengths): 1.25 equivalents of (1) per FAD or per sub-unit of human GR; binding to DNA: concentration from which active (DNA): 1 µM
[Cl][Au][PH]1(c2ccccc2)C(c2ccccn2)=C2CCCCC2=C1c1cccs1 [Compound 2] | 1400 | 2500 | 2 | 1 | 7 |  | 
[Cl][Pt-2]1([Cl])[n+]2ccccc2C2=C3CCCCC3=C(c3cccs3)[P+]21c1ccccc1 (centres unmarked) [Compound 4] | 2300 | 24000 | 400 | 1 | 8 |  | 
c1ccc(-p2c(-c3ccccn3)c3c(c2-c2ccccn2)CCCC3)cc1 [Compound 5] |  |  |  |  |  | 6.7 ± 0.3 | 
c1ccc(-p2c(-c3ccccn3)c3c(c2-c2cccs2)CCCC3)cc1 (centres unmarked) [Compound 6] |  |  |  |  |  | 8.5 ± 0.5 | 
O=NN(CCCl)C(=O)NCCCl [carmustine, 1,3-bis(2-chloroethyl)-1-nitrosourea] |  |  |  |  |  | 615 ± 38 | IC50 [9]: 385 ± 25 µM; IC50 [10]: 300 ± 12 µM
